# Data from PubChem BioAssay (NCI).
#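 Grown in 96-well plates, cells were treated for 48 hours with each compound at five concentrations. Insufficient inhibition: endpoint recorded as highest concentration tested. Definition used: TGI = concentration required for complete inhibition of growth.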
# How the values were obtained:
# Test in all cases: growth of human tumour cells (NCI), 48 h
# 786-0 renal = system: 786-0 renal
# A498 renal = system: A498 renal
# A549 NSCLC = system: A549 NSCLC
# ACHN renal = system: ACHN renal
# CAKI-1 renal = system: CAKI-1 renal
# CCRF-CEM leukemia = system: CCRF-CEM leukemia
# COLO 205 colon = system: COLO 205 colon
# DLD-1 colon = system: DLD-1 colon
# DMS 114 small cell lung = system: DMS 114 small cell lung
# DMS 273 small cell lung = system: DMS 273 small cell lung
# EKVX NSCLC = system: EKVX NSCLC
# HCC-2998 colon = system: HCC-2998 colon
# HCT-116 colon = system: HCT-116 colon
# HL-60(TB) leukemia = system: HL-60(TB) leukemia
# HOP-18 NSCLC = system: HOP-18 NSCLC
# HOP-62 NSCLC = system: HOP-62 NSCLC
# HOP-92 NSCLC = system: HOP-92 NSCLC
# HT29 colon = system: HT29 colon
# IGROV1 ovarian = system: IGROV1 ovarian
# K-562 leukemia = system: K-562 leukemia
# KM12 colon = system: KM12 colon
# KM20L2 colon = system: KM20L2 colon
# LOX IMVI melanoma = system: LOX IMVI melanoma
# LXFL 529 NSCLC = system: LXFL 529 NSCLC
# M14 melanoma = system: M14 melanoma
# M19-MEL melanoma = system: M19-MEL melanoma
# MALME-3M melanoma = system: MALME-3M melanoma
# MOLT-4 leukemia = system: MOLT-4 leukemia
# NCI-H226 lung = system: NCI-H226 lung
# NCI-H23 lung = system: NCI-H23 lung
# NCI-H522 lung = system: NCI-H522 lung
# OVCAR-3 ovarian = system: OVCAR-3 ovarian
# OVCAR-4 ovarian = system: OVCAR-4 ovarian
# OVCAR-5 ovarian = system: OVCAR-5 ovarian
# OVCAR-8 ovarian = system: OVCAR-8 ovarian
# RXF 393 renal = system: RXF 393 renal
# RXF-631 renal = system: RXF-631 renal
# SF-268 CNS = system: SF-268 CNS
# SF-295 CNS = system: SF-295 CNS
# SF-539 CNS = system: SF-539 CNS
# SK-MEL-2 melanoma = system: SK-MEL-2 melanoma
# SK-MEL-28 melanoma = system: SK-MEL-28 melanoma
# SK-MEL-5 melanoma = system: SK-MEL-5 melanoma
# SK-OV-3 ovarian = system: SK-OV-3 ovarian
# SN12C renal = system: SN12C renal
# SNB-19 CNS = system: SNB-19 CNS
# SNB-75 CNS = system: SNB-75 CNS
# SNB-78 CNS = system: SNB-78 CNS
# SR leukemia = system: SR leukemia
# SW-620 colon = system: SW-620 colon
# TK-10 renal = system: TK-10 renal
# U251 CNS = system: U251 CNS
# UACC-257 melanoma = system: UACC-257 melanoma
# UACC-62 melanoma = system: UACC-62 melanoma
# UO-31 renal = system: UO-31 renal
# XF 498 CNS = system: XF 498 CNS
# HCT-15 colon = system: HCT-15 colon
# NCI-H460 lung = system: NCI-H460 lung
# RPMI-8226 leukemia = system: RPMI-8226 leukemia
compound,measurement,setting,value
NC(=O)c1ncn2c1NCC1OC2C(O)C1O (stereo not given),TGI,786-0 renal,> 100 µM
same,TGI,A498 renal,> 100 µM
same,TGI,A549 NSCLC,> 100 µM
same,TGI,ACHN renal,> 100 µM
same,TGI,CAKI-1 renal,> 100 µM
same,TGI,CCRF-CEM leukemia,> 100 µM
same,TGI,COLO 205 colon,> 100 µM
same,TGI,DLD-1 colon,> 100 µM
same,TGI,DMS 114 small cell lung,> 100 µM
same,TGI,DMS 273 small cell lung,> 100 µM
same,TGI,EKVX NSCLC,> 100 µM
same,TGI,HCC-2998 colon,> 100 µM
same,TGI,HCT-116 colon,> 100 µM
same,TGI,HL-60(TB) leukemia,> 100 µM
same,TGI,HOP-18 NSCLC,> 100 µM
same,TGI,HOP-62 NSCLC,> 100 µM
same,TGI,HOP-92 NSCLC,> 100 µM
same,TGI,HT29 colon,> 100 µM
same,TGI,IGROV1 ovarian,> 100 µM
same,TGI,K-562 leukemia,> 100 µM
same,TGI,KM12 colon,> 100 µM
same,TGI,KM20L2 colon,> 100 µM
same,TGI,LOX IMVI melanoma,> 100 µM
same,TGI,LXFL 529 NSCLC,> 100 µM
same,TGI,M14 melanoma,> 100 µM
same,TGI,M19-MEL melanoma,> 100 µM
same,TGI,MALME-3M melanoma,> 100 µM
same,TGI,MOLT-4 leukemia,> 100 µM
same,TGI,NCI-H226 lung,> 100 µM
same,TGI,NCI-H23 lung,> 100 µM
same,TGI,NCI-H522 lung,> 100 µM
same,TGI,OVCAR-3 ovarian,> 100 µM
same,TGI,OVCAR-4 ovarian,> 100 µM
same,TGI,OVCAR-5 ovarian,> 100 µM
same,TGI,OVCAR-8 ovarian,> 100 µM
same,TGI,RXF 393 renal,> 100 µM
same,TGI,RXF-631 renal,> 100 µM
same,TGI,SF-268 CNS,> 100 µM
same,TGI,SF-295 CNS,> 100 µM
same,TGI,SF-539 CNS,> 100 µM
same,TGI,SK-MEL-2 melanoma,> 100 µM
same,TGI,SK-MEL-28 melanoma,> 100 µM
same,TGI,SK-MEL-5 melanoma,> 100 µM
same,TGI,SK-OV-3 ovarian,> 100 µM
same,TGI,SN12C renal,> 100 µM
same,TGI,SNB-19 CNS,> 100 µM
same,TGI,SNB-75 CNS,> 100 µM
same,TGI,SNB-78 CNS,> 100 µM
same,TGI,SR leukemia,> 100 µM
same,TGI,SW-620 colon,> 100 µM
same,TGI,TK-10 renal,> 100 µM
same,TGI,U251 CNS,> 100 µM
same,TGI,UACC-257 melanoma,> 100 µM
same,TGI,UACC-62 melanoma,> 100 µM
same,TGI,UO-31 renal,> 100 µM
same,TGI,XF 498 CNS,> 100 µM
C[C@]12CCc3nonc3C1CC[C@@H]1C2CC[C@]2(C)C(=O)/C(=N\O)CC12 (stereo not given in full),TGI,786-0 renal,> 100 µM
same,TGI,A498 renal,> 100 µM
same,TGI,A549 NSCLC,> 100 µM
same,TGI,ACHN renal,> 100 µM
same,TGI,CAKI-1 renal,> 100 µM
same,TGI,CCRF-CEM leukemia,> 100 µM
same,TGI,COLO 205 colon,> 100 µM
same,TGI,DLD-1 colon,> 100 µM
same,TGI,DMS 114 small cell lung,> 100 µM
same,TGI,DMS 273 small cell lung,> 100 µM
same,TGI,EKVX NSCLC,> 100 µM
same,TGI,HCC-2998 colon,> 100 µM
same,TGI,HCT-116 colon,> 100 µM
same,TGI,HCT-15 colon,> 100 µM
same,TGI,HL-60(TB) leukemia,3.69 µM
same,TGI,HOP-18 NSCLC,> 100 µM
same,TGI,HOP-62 NSCLC,> 100 µM
same,TGI,HOP-92 NSCLC,> 100 µM
same,TGI,HT29 colon,> 100 µM
same,TGI,IGROV1 ovarian,> 100 µM
same,TGI,K-562 leukemia,> 100 µM
same,TGI,KM12 colon,> 100 µM
same,TGI,KM20L2 colon,> 100 µM
same,TGI,LOX IMVI melanoma,> 100 µM
same,TGI,LXFL 529 NSCLC,> 100 µM
same,TGI,M14 melanoma,> 100 µM
same,TGI,M19-MEL melanoma,> 100 µM
same,TGI,MALME-3M melanoma,> 100 µM
same,TGI,MOLT-4 leukemia,> 100 µM
same,TGI,NCI-H226 lung,> 100 µM
same,TGI,NCI-H23 lung,> 100 µM
same,TGI,NCI-H460 lung,> 100 µM
same,TGI,NCI-H522 lung,32 µM
same,TGI,OVCAR-3 ovarian,> 100 µM
same,TGI,OVCAR-4 ovarian,> 100 µM
same,TGI,OVCAR-5 ovarian,> 100 µM
same,TGI,OVCAR-8 ovarian,> 100 µM
same,TGI,RPMI-8226 leukemia,> 100 µM
same,TGI,RXF 393 renal,> 100 µM
same,TGI,RXF-631 renal,> 100 µM
same,TGI,SF-268 CNS,> 100 µM
same,TGI,SF-295 CNS,> 100 µM
same,TGI,SF-539 CNS,> 100 µM
same,TGI,SK-MEL-2 melanoma,> 100 µM
same,TGI,SK-MEL-28 melanoma,> 100 µM
same,TGI,SK-MEL-5 melanoma,> 100 µM
same,TGI,SK-OV-3 ovarian,> 100 µM
same,TGI,SN12C renal,> 100 µM
same,TGI,SNB-19 CNS,> 100 µM
same,TGI,SNB-75 CNS,> 100 µM
same,TGI,SNB-78 CNS,> 100 µM
same,TGI,SR leukemia,> 100 µM
same,TGI,SW-620 colon,> 100 µM
same,TGI,TK-10 renal,> 100 µM
same,TGI,U251 CNS,> 100 µM
same,TGI,UACC-257 melanoma,> 100 µM
same,TGI,UACC-62 melanoma,> 100 µM
same,TGI,UO-31 renal,> 100 µM
same,TGI,XF 498 CNS,> 100 µM
